Experimental data as given in paper PMC6287396, “Hyperactivation of Oncogenic JAK3 Mutants Depend on ATP Binding to the Pseudokinase Domain” (Frontiers in Oncology, 2018).
One block for each compound: values may come before it.

What was measured:
[1] = target: T1, JAK3 JH2 (Homo sapiens, UniProt P52333); experiment: Differential scanning fluorimetry (thermal shift); assay type: binding; conditions: for Effect of nucleotide on Tm (ΔTm): JAK3 JH2, nucleotide titration 0.2, 0.5, 1 mM
T1 construct: JAK3 JH2 (residues 511–790) was cloned into the pFASTBAC1 vector (Invitrogen) with a C-terminal His6 tag; His6 (C); made in house; host or cells: Spodoptera frugiperda (Sf9) insect cells, baculovirus (pFASTBAC1)
T1 sequence (P52333 511-790): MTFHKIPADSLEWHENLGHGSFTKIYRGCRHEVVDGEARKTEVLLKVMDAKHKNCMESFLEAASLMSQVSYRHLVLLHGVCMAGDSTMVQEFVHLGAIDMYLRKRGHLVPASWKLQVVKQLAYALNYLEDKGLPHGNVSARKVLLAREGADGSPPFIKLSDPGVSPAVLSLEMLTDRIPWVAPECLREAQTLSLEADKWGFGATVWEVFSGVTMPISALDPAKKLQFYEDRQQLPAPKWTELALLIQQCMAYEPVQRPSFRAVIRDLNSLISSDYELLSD
Experimental: (§1) Protein concentration of 3 μM was used for the measurement of the melting temperature (Tm). Reactions were done in the buffer used in the SEC. Addition of other components (ATP, salts) were taken into account by including 2X buffer, if needed. Signal arising from the fluorescent dye Life Technologies SYPRO^TM Orange Protein Gel Stain, 4X working solution from 5000X concentrate in DMSO) was measured with a conventional Real-Time PCR system (Bio-Rad CFX), 1°C per min from 4 to 96°C. Results were transferred and normalized in Microsoft Excel and the Tm was derived from the sigmoidal function using GraphPad Prism version 5.02 for Windows, GraphPad Software, La Jolla California USA, https://www.graphpad.com/.

[2] = target: T2, JAK2 JH2; design: method as in PMID 25825724; conditions: JAK2 JH2, with MgCl2; read-out: Kd (MANT-ATP); cited from earlier work
T2 construct: JAK2 JH2 503-827-His; His (C)

[3] = target: T3, TYK2 JH2; design: method as in PMID 26359499; conditions: TYK2 JH2, with MgCl2; read-out: Kd (MANT-ATP); cited from earlier work
T3 construct: TYK2 JH2 564-876-His proteins; His (C)

[4] = target: T1, JAK3 JH2; experiment: MANT-ATP binding assay (steady-state FRET)
Experimental: The steady-state fluorescence of MANT-labeled ATP was measured as described in Mysore et al. ([34]). Briefly, the fluorescently labeled MANT (2′/3′-(N-methyl-anthraniloyl)-ATP was titrated against 1.5 μM recombinant JAK3 JH2. In addition, the protein was titrated as 0, 0.05, 0.25, 1.25, and […] against 0.25 μM MANT-ATP. FRET signal was measured with QuantaMaster PTI Fluorometer and the data was analyzed using GraphPad Prism version 5.02 and Microsoft Excel. Protein titrations were done in duplicate and in MANT-ATP titration in triplicate.

[5] = target: T4, JAK1 JH2; design: method as in PMID 25825724; conditions: JAK1 JH2, with MgCl2; read-out: Kd (MANT-ATP); cited from earlier work
T4 construct: Recombinant JAK1 JH2 553-836-His; His (C)

[6] = target: T5, JAK3 JH2 511-790-His (Homo sapiens, UniProt P52333); experiment: Fluorescence polarization competition assay (ATP vs Bodipy FL JNJ-7706621 tracer); assay type: binding; conditions: JAK3 JH2, ATP competing with tracer, no MgCl2 added
T5 construct: JAK3 JH2 (residues 511–790) was cloned into the pFASTBAC1 vector (Invitrogen) with a C-terminal His6 tag; His6 (C); made in house; host or cells: Spodoptera frugiperda (Sf9) insect cells, baculovirus (pFASTBAC1)
T5 sequence (P52333 511-790): T1 sequence (P52333 511-790)
Experimental: (§2) Fluorescence polarization measurements were performed in black 384-well plates (ProxiPlate-384 F Plus, PerkinElmer) at sample volume of 5 μl/well on PerkinElmer Envision plate reader using 480 nm excitation and 535 nm emission filters. Fluorescent tracer, Bodipy FL labeled JNJ-7706621 [compound 5 in ([35])] was used at 1.5 nM concentration. Recombinant JAK1 JH2 553-836-His, JAK2 JH2 503-827-His, JAK3 JH2 511-790-His, and TYK2 JH2 564-876-His proteins were used at concentrations (2 nM JAK1, 150 nM JAK2, 1 μM JAK3, 20 nM TYK2) dependent on protein-tracer dissociation constants. The assays were performed in a buffer consisting of 20 mM Tris-HCl pH 8.0, 150 mM NaCl, 20% glycerol, 0.01% Brij-35, and 2 mM DTT. ATP was titrated at concentration range of 5 nM−5 μM and fluorescence polarization values obtained were fitted against log[ATP] in GraphPad Prism to yield IC50 values. Assays were performed in triplicate.

[7] = target: T6, JAK2 JH2 503-827-His (Homo sapiens, UniProt O60674); experiment: as above; assay type: binding; conditions: JAK2 JH2, ATP competing with tracer, with MgCl2
T6 construct: JAK2 JH2 503-827-His; His (C)
Experimental: as §2

[8] = target: T7, TYK2 JH2 564-876-His (Homo sapiens, UniProt P29597); experiment: as above; assay type: binding; conditions: TYK2 JH2, ATP competing with tracer, with MgCl2
T7 construct: TYK2 JH2 564-876-His proteins; His (C)
Experimental: as §2

[9] = target: T8, JAK1 JH2 553-836-His (Homo sapiens, UniProt P23458); experiment: as above; assay type: binding; conditions: JAK1 JH2, ATP competing with tracer, with MgCl2
T8 construct: Recombinant JAK1 JH2 553-836-His; His (C)
Experimental: as §2

[10] = tested on: T2, JAK2 JH2; experiment: Differential scanning fluorimetry (thermal shift); assay type: binding
Experimental: as §1

[11] = tested on: T4, JAK1 JH2; experiment: Differential scanning fluorimetry (thermal shift); assay type: binding; conditions: JAK1 JH2, 1 mM ATP
Experimental: as §1

[12] = tested on: T3, TYK2 JH2; experiment: Differential scanning fluorimetry (thermal shift); assay type: binding
Experimental: as §1

T8 sequence (P23458 553-836): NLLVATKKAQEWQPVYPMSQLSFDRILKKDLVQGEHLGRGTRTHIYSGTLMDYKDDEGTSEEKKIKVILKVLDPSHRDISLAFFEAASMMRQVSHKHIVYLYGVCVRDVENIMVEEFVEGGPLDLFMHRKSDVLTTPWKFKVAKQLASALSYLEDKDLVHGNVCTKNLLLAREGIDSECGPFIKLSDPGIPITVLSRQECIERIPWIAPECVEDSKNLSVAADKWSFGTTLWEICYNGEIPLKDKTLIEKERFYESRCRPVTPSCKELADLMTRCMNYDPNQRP
T7 sequence (P29597 564-876): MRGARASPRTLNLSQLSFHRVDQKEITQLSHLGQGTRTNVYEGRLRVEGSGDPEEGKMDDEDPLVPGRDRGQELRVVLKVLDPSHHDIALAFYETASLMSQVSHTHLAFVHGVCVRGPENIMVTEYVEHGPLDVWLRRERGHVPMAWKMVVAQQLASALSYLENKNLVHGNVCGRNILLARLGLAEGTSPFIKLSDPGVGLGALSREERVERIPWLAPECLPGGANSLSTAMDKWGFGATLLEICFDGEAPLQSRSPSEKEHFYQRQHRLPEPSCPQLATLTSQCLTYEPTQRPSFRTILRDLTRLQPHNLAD
T6 sequence (O60674 503-827): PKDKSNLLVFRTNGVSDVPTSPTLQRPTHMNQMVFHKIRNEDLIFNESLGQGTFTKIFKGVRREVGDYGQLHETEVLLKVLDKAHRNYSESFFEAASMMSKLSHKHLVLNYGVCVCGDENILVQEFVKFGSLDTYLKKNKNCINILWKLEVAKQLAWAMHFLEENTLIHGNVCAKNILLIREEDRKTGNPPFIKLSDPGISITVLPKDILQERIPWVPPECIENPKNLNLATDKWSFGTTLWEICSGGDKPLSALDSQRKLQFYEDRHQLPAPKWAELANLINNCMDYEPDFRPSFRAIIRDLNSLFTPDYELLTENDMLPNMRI

Effect of nucleotide on Tm (ΔTm) [1]: no effect on Tm
Compound: Nc1ncnc2c1ncn2[C@@H]1O[C@H](COP(=O)(O)O)[C@@H](O)[C@H]1O [AMP]

fold tighter MANT-ATP binding of JAK3 JH2 compared to JAK1 JH2 ([4]; JAK3 JH2 vs JAK1 JH2): 6 fold | fold tighter MANT-ATP binding of JAK3 JH2 compared to JAK2 JH2 ([4]; JAK3 JH2 vs JAK2 JH2): 3 fold | fold tighter MANT-ATP binding of JAK3 JH2 compared to TYK2 JH2 ([4]; JAK3 JH2 vs TYK2 JH2): 30 fold
Compound: 2′/3′-(N-methyl-anthraniloyl)-ATP [MANT-ATP]
Kd [2]: 1.3 µM | Kd [3]: 15 µM | Kd [5]: 3.1 µM

IC50 [6]: 16 µM | IC50 [7]: 102 µM | IC50 [8]: 471 µM | IC50 [9]: 110 µM | Kd ([1]; 50 nM−1 mM ATP titrated to 3 μM JAK3 JH2, read-out: Kd approximated with DSF): 40.4 ± 97.1 µM | ΔTm ([1]; JAK3 JH2, 0.2 mM ATP): 8 °C | TmATP ([1]; melting temperature of JAK3 JH2 with ATP): 41 °C
Compound: Nc1ncnc2c1ncn2[C@@H]1O[C@H](COP(=O)(O)OP(=O)(O)OP(=O)(O)O)[C@@H](O)[C@H]1O [ATP]
ΔTm (1 mM ATP) ([10]; JAK2 JH2, 1 mM ATP): 4.9 °C | TmATP ([10]; melting temperature of JAK2 JH2 with ATP): 46 °C | ΔTm (1 mM ATP) [11]: 3.9 °C | ΔTm (1 mM ATP) ([12]; TYK2 JH2, 1 mM ATP): 0.9 °C | TmATP ([12]; melting temperature of TYK2 JH2 with ATP): 48 °C

Compound: Nc1ncnc2c1ncn2[C@@H]1O[C@H](COP(=O)(O)OP(=O)(O)O)[C@@H](O)[C@H]1O [ADP]
Effect of nucleotide on Tm (ΔTm) [1]: significantly reduced ΔTm compared to ATP
